Reference: patent publication US12435085B2, “Crystalline forms and formulations of a VCP/p97 inhibitor” (CASI Pharmaceuticals, Inc., priority 2020, dated 2025)

Assays:
[1] = Relative humidity (RH) stress of salts; type: physicochemical; conditions: solid in open vial, 10 days at 94% RH
Source text: Solids of select Compound 1 salts were exposed to ˜94% RH (ASTM Standard E, 104-85, 1996) for a given period of time by placing the solids into an open vial inside a sealed container. Samples were observed visually for signs of deliquescence after removal from the stress environment.

[2] = molecular target: p97 (Homo sapiens, UniProt P55072); experiment: p97 inhibition assay (ADP glo luminescence); type: biochemical; conditions: ATP 20 μM, p97 20 nM, 37° C. for 15 min
p97, sequence (P55072 whole entry): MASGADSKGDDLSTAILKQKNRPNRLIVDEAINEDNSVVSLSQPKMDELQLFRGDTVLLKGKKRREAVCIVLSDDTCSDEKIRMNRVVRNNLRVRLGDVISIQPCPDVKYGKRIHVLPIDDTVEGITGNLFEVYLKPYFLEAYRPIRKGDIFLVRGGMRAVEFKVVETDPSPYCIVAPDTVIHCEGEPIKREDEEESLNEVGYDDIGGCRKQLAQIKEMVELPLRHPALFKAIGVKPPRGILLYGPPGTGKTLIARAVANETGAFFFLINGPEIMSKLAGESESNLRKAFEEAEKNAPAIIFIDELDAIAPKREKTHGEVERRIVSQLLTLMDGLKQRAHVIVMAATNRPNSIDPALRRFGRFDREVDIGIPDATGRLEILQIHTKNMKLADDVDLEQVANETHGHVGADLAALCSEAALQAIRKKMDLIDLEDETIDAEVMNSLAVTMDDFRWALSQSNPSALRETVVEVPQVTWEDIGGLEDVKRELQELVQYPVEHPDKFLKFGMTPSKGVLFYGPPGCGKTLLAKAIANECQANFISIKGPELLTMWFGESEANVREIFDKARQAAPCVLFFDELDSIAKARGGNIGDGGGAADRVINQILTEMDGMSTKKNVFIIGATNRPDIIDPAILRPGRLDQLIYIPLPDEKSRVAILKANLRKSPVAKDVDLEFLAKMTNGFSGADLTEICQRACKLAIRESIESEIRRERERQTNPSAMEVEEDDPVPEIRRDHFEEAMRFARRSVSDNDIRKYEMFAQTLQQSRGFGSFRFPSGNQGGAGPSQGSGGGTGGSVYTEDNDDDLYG
Description: The p97 assay is an assay used to determine inhibitory activity of compounds against the p97 complex. Inhibition of activity of the p97 proteosome complex can enable apoptosis and cause elimination of neoplastic cells (cancer cells). The assay follows that of Christianson in Nat. Cell Biol., (2011) 14:93. The reagents used for the p97 assay include an assay buffer which is a mixture of 50 mM TRIS pH 7.5, 20 mM MgCI˜, 0.02% TX-100, 1 mM DTT and 0.2% (v/v) glycerol. The well plate is a Corning 3674, 384w plate. The identification kit is an ADP glo kit (Promega): stop buffer, detection reagent.
The assay is conducted as follows: • Serial dilute compound in DMSO in a 1:3.33-fold 10 point serial dilution. • In each well of 384w plate add the following reagents: • 0.5 μL compound serial diluted in DMSO (Final Conc. 10%) • 2 μL ATP (Final Conc.=20 μM, diluted in assay buffer) • 2.5 μL p97 (Final Conc.=20 nM, diluted in assay buffer). • Incubate at 37° C. for 15 min. • Add 5 μL of stop buffer, incubate at RT for 40 min. • Add 10 μL of detection reagent, incubate at RT for 30 min. • Read luminescence on Envision plate reader. […]

RH stress: change in appearance/texture (signs of deliquescence, visual) [1]	IC50 [2]	SMILES
no apparent change in appearance/texture		Cc1cc2c(C(N)=O)cccc2n1-c1nc2c(c(NCc3ccccc3)n1)CCCN2.Cl.Cl [Compound 1 hydrochloride, 1-(4-(benzylamino)-5,6,7,8-tetrahydropyrido[2,3-d]pyrimidin-2-yl)-2-methyl-1H-indole-4-carboxamide hydrochloric acid salt (hydrochloride)]
no apparent change in appearance/texture		Cc1cc2c(C(N)=O)cccc2n1-c1nc2c(c(NCc3ccccc3)n1)CCCN2.O=S(=O)(O)O.O=S(=O)(O)O [Compound 1 sulfate, 1-(4-(benzylamino)-5,6,7,8-tetrahydropyrido[2,3-d]pyrimidin-2-yl)-2-methyl-1H-indole-4-carboxamide sulfuric acid salt (sulfate)]
no apparent change in appearance/texture		Cc1cc2c(C(N)=O)cccc2n1-c1nc2c(c(NCc3ccccc3)n1)CCCN2.Cc1ccc(S(=O)(=O)O)cc1.Cc1ccc(S(=O)(=O)O)cc1 [Compound 1 tosylate, 1-(4-(benzylamino)-5,6,7,8-tetrahydropyrido[2,3-d]pyrimidin-2-yl)-2-methyl-1H-indole-4-carboxamide p-toluenesulfonic acid salt (tosylate)]
	< 0.03 µM	Cc1cc2c(C(N)=O)cccc2n1-c1nc2c(c(NCc3ccccc3)n1)CCCN2 [Compound 1, 1-(4-(benzylamino)-5,6,7,8-tetrahydropyrido[2,3-d]pyrimidin-2-yl)-2-methyl-1H-indole-4-carboxamide]
